Patent publication US20230129485A1, “SYSTEM AND METHOD FOR DETERMINING MATERIAL PROPERTIES OF MOLECULAR SYSTEMS FROM AN AB-INITIO PARAMETERIZED FORCE-FIELD” (InterX, Inc., priority 2021, published 2023)
Where two headings read alike, the source gives them in different places.

Experiments:
[1] = Free energy of hydration by Free Energy Machine Learning Model (FML); settings: absolute error vs Exp (hydration)
Description: Machine learning models can be used for free energy determination.

[2] = experimental, cited from earlier work; for Exp (hydration): Table 5
[3] = Free energy of hydration predicted by General Amber Force Field (GAFF), from literature; settings: Table 5; error of GAFF hydration free energy vs experiment
[4] = Table 5; free energy of hydration, AMOEBA prediction taken from literature; cited from earlier work
[5] = Free energy of hydration by Solvation Model Dielectric (SMD) implicit solvent model; settings: absolute error vs Exp (hydration)
In short: (§1)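 Implicit-solvent predictions of hydration free energy. MolPro supplied the COSMO solvation energies across the dataset. Predicted SMD and PCM values were received rather than computed here. Coverage for SMD, PCM and COSMO-RS matches the QM-parameterized force-field subset.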

[6] = Free energy of hydration by COSMO implicit solvent model (MolPro ver. 2012); settings: absolute error vs Exp (hydration)
In short: as §1

[7] = Free energy of hydration by COSMO-RS
In short: as §1

[8] = implicit solvent model, values received; cited from earlier work
[9] = Free energy of hydration predicted with the QM-parameterized force field model (ARROW FF), classical MD and PIMD simulation in a water box; settings: for Arrow error: Table 5, error of Arrow PIMD8 hydration free energy vs experiment; for Arrow PIMD8 Error: absolute error vs Exp (hydration)
In short: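 Classical and PIMD runs (MTS integrator, MTTK barostat at 1 atm) followed minimization and 50 ps equilibration, with 1 ns NPT production per window. Fifteen unequally spaced lambda windows removed all solute-solvent interactions simultaneously in a 32 Å water box. Hydration free energy computed by Bennett acceptance ratio and thermodynamic integration.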

[10] = Free energy of hydration predicted by polarizable AMOEBA force field, from literature; settings: Table 5; error of AMOEBA hydration free energy vs experiment
[11] = Table 5; free energy of hydration, GAFF prediction taken from literature; cited from earlier work
[12] = Free energy of hydration by Polarizable Continuum Model (PCM); settings: absolute error vs Exp (hydration)
In short: as §1

[13] = implicit solvent model, values received; cited from earlier work; remark: listed apart in the source
[14] = CHEX/H2O partition coefficient (log D) predicted with the QM-parameterized force field model (ARROW FF)
In short: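 Cyclohexane/water partition coefficients were predicted by molecular simulation with a QM-parameterized force field, with bonded force constants and equilibrium values fitted to MP2/aug-cc-pVTZ energies. Solutes carried neutral functional groups, and results from four independent groups were averaged.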

[15] = experimental, cited from earlier work
[16] = CHEX/H2O partition coefficient, experimental, cited from earlier work; for Exp (log D): Table 3; for logD Exp (logD): Table 4
[17] = Free energy of solvation in cyclohexane predicted with the QM-parameterized force field model (ARROW FF), MD and PIMD; settings: Table 4; for CHEX Arrow MD Error: error of MD cyclohexane solvation free energy vs experiment; for CHEX Arrow PIMD4 Error: error of PIMD4 cyclohexane solvation free energy vs experiment
In short: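 Solute–cyclohexane interactions decoupled over 15 λ points with soft-core scaling, in MD and path-integral simulations under NPT at 1 atm using PME electrostatics and 9 Å cutoffs. Each window had 50 ps equilibration and 1 ns production; free energies from BAR and TI.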

[18] = Table 3, free energy of hydration
[19] = Table 3, absolute error of MD hydration free energy vs experiment
[20] = Table 3, absolute error of PIMD8 hydration free energy vs experiment
[21] = Table 3, absolute error of MD log D vs experiment
[22] = Table 3, absolute error of PIMD log D vs experiment
[23] = Table 3, free energy of solvation in cyclohexane
[24] = Table 4, neutral amino-acid analogues
[25] = Table 4, solvation free energy in cyclohexane
[26] = Table 4, error of MD hydration free energy vs experiment
[27] = Table 4, error of PIMD8 hydration free energy vs experiment

SMILES: CC [Ethane]
- FML error [1]: 0.85 kcal/mol
- water Exp (hydration) [2, 18]: 1.79 kcal/mol
- Exp (hydration) ([2]; free energy of hydration): 1.79 kcal/mol
- GAFF error [3]: 0.79 kcal/mol
- AMOEBA [4]: 1.73 kcal/mol
- SMD Error [5]: 0.01 kcal/mol
- COSMO/Molpro Error [6]: 2.19 kcal/mol
- COSMO-RS error [7]: 0.02 kcal/mol
- PCM free energy of hydration [8]: -0.10 kcal/mol
- water Arrow MD Error [9, 19]: 0.42 kcal/mol
- water Arrow PIMD8 Error [9, 20]: 0.12 kcal/mol
- Arrow error [9]: 0.12 kcal/mol
- Arrow PIMD8 Error [9]: 0.12 kcal/mol
- AMOEBA error [10]: 0.06 kcal/mol
- GAFF [11]: 2.58 kcal/mol
- PCM Error [12]: 1.89 kcal/mol
- SMD free energy of hydration [13]: 1.80 kcal/mol

SMILES: CCC=O [propionaldehyde]
- FML error [1]: 0.05 kcal/mol
- GAFF error [3]: 0.02 kcal/mol
- AMOEBA [4]: -3.08 kcal/mol
- SMD Error [5]: 0.33 kcal/mol
- COSMO/Molpro Error [6]: 4.76 kcal/mol
- COSMO-RS error [7]: 0.26 kcal/mol
- water Arrow MD Error [9, 19]: 0.30 kcal/mol
- water Arrow PIMD8 Error [9, 20]: 0.25 kcal/mol
- Arrow error [9]: 0.45 kcal/mol
- Arrow PIMD8 Error [9]: 0.25 kcal/mol
- AMOEBA error [10]: 0.35 kcal/mol
- GAFF [11]: -3.41 kcal/mol
- PCM Error [12]: 0.17 kcal/mol

SMILES: CCCCC(C)=O [hexa2none]
- FML error [1]: 0.07 kcal/mol
- water Exp (hydration) [2, 18]: -3.28 kcal/mol
- log D Arrow MD Error [14, 21]: 0.07
- log D Arrow PIMD Error [14, 22]: 0.11
- SMD Error [5]: 0.22 kcal/mol
- COSMO/Molpro Error [6]: 4.43 kcal/mol
- COSMO-RS error [7]: 0.17 kcal/mol
- PCM free energy of hydration [8]: -4.00 kcal/mol
- CHEX Exp (solvation) [15, 23]: -4.77 kcal/mol
- water Arrow MD Error [9, 19]: 0.69 kcal/mol
- water Arrow PIMD8 Error [9, 20]: 0.20 kcal/mol
- Arrow PIMD8 Error [9]: 0.20 kcal/mol
- PCM Error [12]: 0.72 kcal/mol
- Exp (log D) [16]: 1.09
- SMD free energy of hydration [13]: -3.50 kcal/mol

SMILES: CNC(C)=O [N-Methylacetamide]
- FML error [1]: 1.89 kcal/mol
- water Exp (hydration) [2, 18]: -10 kcal/mol
- Exp (hydration) ([2]; free energy of hydration): -10.00 kcal/mol
- GAFF error [3]: 1.61 kcal/mol
- AMOEBA [4]: -8.66 kcal/mol
- SMD Error [5]: 1.40 kcal/mol
- COSMO/Molpro Error [6]: 3.10 kcal/mol
- COSMO-RS error [7]: 0.27 kcal/mol
- PCM free energy of hydration [8]: -6.60 kcal/mol
- water Arrow MD Error [9, 19]: 1.52 kcal/mol
- water Arrow PIMD8 Error [9, 20]: 0.49 kcal/mol
- Arrow error [9]: 0.49 kcal/mol
- Arrow PIMD8 Error [9]: 0.49 kcal/mol
- AMOEBA error [10]: 1.34 kcal/mol
- GAFF [11]: -8.39 kcal/mol
- PCM Error [12]: 3.40 kcal/mol
- SMD free energy of hydration [13]: -8.60 kcal/mol

SMILES: CC(C)=O [Acetone]
- FML error [1]: 0.34 kcal/mol
- water Exp (hydration) [2, 18]: -3.80 kcal/mol
- log D Arrow MD Error [14, 21]: 0.01
- log D Arrow PIMD Error [14, 22]: 0.31
- SMD Error [5]: 0.30 kcal/mol
- COSMO/Molpro Error [6]: 4.55 kcal/mol
- COSMO-RS error [7]: 0.90 kcal/mol
- PCM free energy of hydration [8]: -4.20 kcal/mol
- CHEX Exp (solvation) [15, 23]: -2.67 kcal/mol
- water Arrow MD Error [9, 19]: 0.33 kcal/mol
- water Arrow PIMD8 Error [9, 20]: 0.31 kcal/mol
- Arrow PIMD8 Error [9]: 0.31 kcal/mol
- PCM Error [12]: 0.40 kcal/mol
- Exp (log D) [16]: −0.83
- SMD free energy of hydration [13]: -4.10 kcal/mol

SMILES: c1cc[nH]c1 [Pyrrole]
- FML error [1]: 2.22 kcal/mol
- water Exp (hydration) [2, 18]: -4.8 kcal/mol
- Exp (hydration) ([2]; free energy of hydration): -4.80 kcal/mol
- GAFF error [3]: 0.93 kcal/mol
- AMOEBA [4]: -3.80 kcal/mol
- COSMO/Molpro Error [6]: 2.42 kcal/mol
- COSMO-RS error [7]: 0.96 kcal/mol
- water Arrow MD Error [9, 19]: 0.08 kcal/mol
- water Arrow PIMD8 Error [9, 20]: 0.63 kcal/mol
- Arrow error [9]: 0.63 kcal/mol
- Arrow PIMD8 Error [9]: 0.63 kcal/mol
- AMOEBA error [10]: 1.00 kcal/mol
- GAFF [11]: -3.87 kcal/mol

SMILES: CCC(=O)CC [3-Pentanone]
- FML error [1]: 0.16 kcal/mol
- water Exp (hydration) [2, 18]: -3.41 kcal/mol
- log D Arrow MD Error [14]: 0.32
- log D Arrow PIMD Error [14]: 0.02
- SMD Error [5]: 0.09 kcal/mol
- COSMO/Molpro Error [6]: 3.33 kcal/mol
- COSMO-RS error [7]: 0.06 kcal/mol
- PCM free energy of hydration [8]: -3.70 kcal/mol
- CHEX Exp (solvation) [15, 23]: -4.30 kcal/mol
- water Arrow MD Error [9, 19]: 0.88 kcal/mol
- water Arrow PIMD8 Error [9, 20]: 0.23 kcal/mol
- Arrow PIMD8 Error [9]: 0.23 kcal/mol
- PCM Error [12]: 0.29 kcal/mol
- Exp (log D) [16]: 0.65
- SMD free energy of hydration [13]: -3.50 kcal/mol

SMILES: CCCCCCCCO [Octanol]
- FML error [1]: 0.02 kcal/mol
- water Exp (hydration) [2, 18]: -4.09 kcal/mol
- Exp (hydration) ([2]; free energy of hydration): -4.09 kcal/mol
- GAFF error [3]: 1.11 kcal/mol
- AMOEBA [4]: -2.65 kcal/mol
- SMD Error [5]: 0.69 kcal/mol
- COSMO/Molpro Error [6]: 2.57 kcal/mol
- COSMO-RS error [7]: 0.18 kcal/mol
- PCM free energy of hydration [8]: -3.30 kcal/mol
- water Arrow MD Error [9, 19]: 1.40 kcal/mol
- water Arrow PIMD8 Error [9, 20]: 0.22 kcal/mol
- Arrow error [9]: 0.22 kcal/mol
- Arrow PIMD8 Error [9]: 0.22 kcal/mol
- AMOEBA error [10]: 1.44 kcal/mol
- GAFF [11]: -5.20 kcal/mol
- PCM Error [12]: 0.79 kcal/mol
- SMD free energy of hydration [13]: -3.40 kcal/mol

SMILES: CCC(N)=O [propionamide]
- FML error [1]: 2.21 kcal/mol
- water Exp (hydration) [2, 18]: -9.4 kcal/mol
- water Exp (hydration) [2, 24]: -9.4 kcal/mol
- logD Arrow MD Error ([14]; Table 4, error of MD logD vs experiment): 0.54
- logD Arrow PIMD Error ([14]; Table 4, error of PIMD logD vs experiment): 0.12
- CHEX Arrow MD Error [17]: 0.48 kcal/mol
- CHEX Arrow PIMD4 Error [17]: 0.34 kcal/mol
- COSMO/Molpro Error [6]: 3.50 kcal/mol
- CHEX Exp (solvation) [15, 25]: -3.77 kcal/mol
- water Arrow MD Error [9, 19]: 1.21 kcal/mol
- water Arrow PIMD8 Error [9, 20]: 0.17 kcal/mol
- water Arrow MD Error [9, 26]: 1.21 kcal/mol
- water Arrow PIMD8 Error [9, 27]: 0.17 kcal/mol
- Arrow PIMD8 Error [9]: 0.17 kcal/mol
- logD Exp (logD) [16]: −4.13

SMILES: CC(C)C [Isobutane]
- FML error [1]: 0.12 kcal/mol
- water Exp (hydration) [2, 18]: 2.28 kcal/mol
- water Exp (hydration) [2, 24]: 2.28 kcal/mol
- log D Arrow MD Error [14]: 0.44
- log D Arrow PIMD Error [14]: 0.06
- logD Arrow MD Error [14]: 0.44
- logD Arrow PIMD Error [14]: 0.06
- CHEX Arrow MD Error [17]: 0.33 kcal/mol
- CHEX Arrow PIMD4 Error [17]: 0.10 kcal/mol
- SMD Error [5]: 0.28 kcal/mol
- COSMO/Molpro Error [6]: 2.28 kcal/mol
- COSMO-RS error [7]: 0.14 kcal/mol
- PCM free energy of hydration [8]: -0.20 kcal/mol
- CHEX Exp (solvation) [15, 23]: -2.61 kcal/mol
- CHEX Exp (solvation) [15, 25]: -2.61 kcal/mol
- water Arrow MD Error [9, 19]: 0.93 kcal/mol
- water Arrow PIMD8 Error [9, 20]: 0.02 kcal/mol
- water Arrow MD Error [9, 26]: 0.93 kcal/mol
- water Arrow PIMD8 Error [9, 27]: 0.02 kcal/mol
- Arrow PIMD8 Error [9]: 0.02 kcal/mol
- PCM Error [12]: 2.48 kcal/mol
- Exp (log D) [16]: 3.59
- logD Exp (logD) [16]: 3.59
- SMD free energy of hydration [13]: 2.00 kcal/mol

SMILES: CCCC(C)=O [2-Pentanone]
- FML error [1]: 0.29 kcal/mol
- water Exp (hydration) [2, 18]: -3.52 kcal/mol
- log D Arrow MD Error [14]: 0.22
- log D Arrow PIMD Error [14]: 0.20
- SMD Error [5]: 0.18 kcal/mol
- COSMO/Molpro Error [6]: 4.22 kcal/mol
- COSMO-RS error [7]: 0.07 kcal/mol
- PCM free energy of hydration [8]: -4.00 kcal/mol
- CHEX Exp (solvation) [15, 23]: -4.19 kcal/mol
- water Arrow MD Error [9, 19]: 0.67 kcal/mol
- water Arrow PIMD8 Error [9, 20]: 0.01 kcal/mol
- Arrow PIMD8 Error [9]: 0.01 kcal/mol
- PCM Error [12]: 0.48 kcal/mol
- Exp (log D) [16]: 0.49
- SMD free energy of hydration [13]: -3.70 kcal/mol
